This is an account of results in patent publication US8772494B2, “N-aryl piperidine substituted biphenylcarboxamides as inhibitors of apolipoprotein b” (Janssen Pharmaceutica N.V., priority 2003, dated 2014).

Assay [1] concerns the target MTP (Homo sapiens, UniProt P55157). The assay is described as follows: MTP assay (triglyceride transfer from donor to acceptor vesicles). The class given is biochemical. To be noted: MTP activity, percent triglyceride transfer, 37° C.; read-out: pIC50 values (= −log IC50 value) (converted). As for the experimental part: MTP activity was measured using an assay similar to one described by J. R. Wetterau and D. B. Zilversmit in Chemistry and Physics of Lipids, 38, 205-222 (1985). To prepare the donor and acceptor vesicles, the appropriate lipids in chloroform were put into a glass test tube and dried under a stream of N2. A buffer containing 15 mM Tris-HCl pH 7.5, 1 mM EDTA, 40 mM NaCl, 0.02% NaN3 (assay buffer) was added to the dried lipid. The mixture was vortexed briefly and the lipids were then allowed to hydrate for 20 min on ice. Vesicles were then prepared by bath sonication (Branson 2200) at room temperature for maximum 15 min. Butylated hydroxytoluene was included in all vesicle preparations at a concentration of 0.1%. The lipid transfer assay mixture contained donor vesicles (40 nmol phosphatidylcholine, 7.5 mol % of cardiolipin and 0.25 mol % glycerol tri [1-^14C]-oleate), acceptor vesicles (240 nmol phosphatidylcholine) and 5 mg BSA in a total volume of 675 μl in a 1.5 ml microcentrifuge tube. Test compounds were added dissolved in DMSO (0.13% final concentration). After 5 minutes of pre-incubation at 37° C., the reaction was started by the addition of MTP in 100 μl dialysis buffer. The reaction was stopped by the addition of 400 μl DEAE-52 cellulose pre-equilibrated in 15 mM Tris-HCl pH 7.5, 1 mM EDTA, 0.02% NaN3 (1:1, vol/vol). The mixture was agitated for 4 min and centrifuged for 2 min at maximum speed in an Eppendorf centrifuge (4° C.) to pellet the DEAE-52-bound donor vesicles. An aliquot of the supernatant containing the acceptor liposomes was counted and the [^14C]-counts were used to calculate the percent triglyceride transfer from donor to acceptor vesicles.
Resulting IC50 values are enumerated in Table C.2. When the calculated IC50 was below 7, not enough data points were available at the tested concentrations to calculate an IC50 value.

For assay [2], the system named is ApoB secretion, HepG2 cells. The assay is described as follows: Quantification of the secretion of ApoB. It is filed as cell-based. To be noted: Homo sapiens, 24 hours of incubation, secreted apoB immunoprecipitated, read-out: pIC50 values (= −log IC50 value) (converted). As for the experimental part:
HepG2 cells were cultured in 24-well plates in MEM Rega 3 containing 10% fetal calf serum. At 70% confluency, the medium was changed and the test compound or carrier (DMSO, 0.4% final concentration) was added. After 24 hours of incubation, the medium was transferred to Eppendorf tubes and cleared by centrifugation. A sheep antibody directed against either apoB was added to the supernatant and the mixture was kept at 8° C. for 24 hours. Then, rabbit anti-sheep antibody was added and the immune complex was allowed to precipitate for 24 hours at 8° C. The immunoprecipitate was pelleted by centrifugation for 25 minutes at 1320 g and washed twice with a buffer containing 40 mM Mops, 40 mM NaH2PO4, 100 mM NaF, 0.2 mM DTT, 5 mM EDTA, 5 mM EGTA, 1% Triton-X-100, 0.5% sodium deoxycholate (DOC), 0.1% SDS, 0.2 μM leupeptin and 0.2 μM PMSF. Radioactivity in the pellet was quantified by liquid scintillation counting.
Resulting IC50 values are enumerated in Table C.1. When the calculated IC50 was below 6, not enough data points were available at the tested concentrations to calculate an IC50 value.

Molecules are shown by their SMILES.

Chain of MTP (P55157 19-894, species assumed): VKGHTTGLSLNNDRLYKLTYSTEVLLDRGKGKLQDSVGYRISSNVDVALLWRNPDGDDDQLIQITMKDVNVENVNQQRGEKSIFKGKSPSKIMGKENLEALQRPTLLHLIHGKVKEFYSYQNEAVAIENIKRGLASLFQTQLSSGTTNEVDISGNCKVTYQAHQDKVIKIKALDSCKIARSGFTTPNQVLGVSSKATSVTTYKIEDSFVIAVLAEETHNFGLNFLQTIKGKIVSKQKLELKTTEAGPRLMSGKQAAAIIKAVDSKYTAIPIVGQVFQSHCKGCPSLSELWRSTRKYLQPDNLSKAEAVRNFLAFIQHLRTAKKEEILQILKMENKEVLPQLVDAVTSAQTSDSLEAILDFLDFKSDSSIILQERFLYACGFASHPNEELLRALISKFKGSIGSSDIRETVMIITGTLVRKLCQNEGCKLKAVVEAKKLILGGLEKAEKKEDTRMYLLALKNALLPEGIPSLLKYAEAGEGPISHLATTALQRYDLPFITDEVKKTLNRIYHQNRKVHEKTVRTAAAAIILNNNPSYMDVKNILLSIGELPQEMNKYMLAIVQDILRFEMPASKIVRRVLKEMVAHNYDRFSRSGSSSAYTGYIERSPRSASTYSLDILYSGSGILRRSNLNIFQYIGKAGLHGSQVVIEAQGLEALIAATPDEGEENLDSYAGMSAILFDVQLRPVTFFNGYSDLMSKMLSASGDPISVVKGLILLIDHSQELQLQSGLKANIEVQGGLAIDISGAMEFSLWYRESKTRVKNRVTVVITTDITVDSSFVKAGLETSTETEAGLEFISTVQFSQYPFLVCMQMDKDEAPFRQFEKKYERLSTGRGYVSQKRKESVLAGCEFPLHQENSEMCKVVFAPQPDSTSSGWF
Chain of MTP (P07237 18-508 partner, species assumed): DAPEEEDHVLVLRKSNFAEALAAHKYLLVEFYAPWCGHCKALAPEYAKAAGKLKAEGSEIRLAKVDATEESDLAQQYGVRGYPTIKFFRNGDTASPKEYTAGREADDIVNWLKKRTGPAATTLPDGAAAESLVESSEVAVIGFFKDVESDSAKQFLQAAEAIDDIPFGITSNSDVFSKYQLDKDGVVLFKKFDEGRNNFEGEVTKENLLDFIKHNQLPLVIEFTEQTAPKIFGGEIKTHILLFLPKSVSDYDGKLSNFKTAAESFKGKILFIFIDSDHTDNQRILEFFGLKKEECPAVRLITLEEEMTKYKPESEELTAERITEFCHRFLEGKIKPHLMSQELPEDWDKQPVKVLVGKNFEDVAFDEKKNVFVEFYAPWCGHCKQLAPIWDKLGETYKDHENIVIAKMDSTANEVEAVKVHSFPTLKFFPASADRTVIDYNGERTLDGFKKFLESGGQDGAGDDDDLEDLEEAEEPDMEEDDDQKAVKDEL

`CCOC(=O)CC[C@H](NC(=O)CC1CCN(c2ccc(NC(=O)c3ccccc3-c3ccc(C(F)(F)F)cc3)cc2)CC1)C(=O)OCC` [Compound 34]: the IC50 (in general, the point on the concentration scale where inhibition reaches its midpoint) in assay [1] is 12.1 nM; in assay [2] it was more than 1000 nM.
For the compound `CCOC(=O)C1CCN(C(=O)CC2CCN(c3ccc(NC(=O)c4ccccc4-c4ccc(C(F)(F)F)cc4)cc3)CC2)CC1` [Compound 35], the IC50 was more than 100 nM in assay [1] and more than 1000 nM in assay [2].
Turning to `CCOC(=O)CNC(=O)CC1CCN(c2ccc(NC(=O)c3ccccc3-c3ccc(C(F)(F)F)cc3)cc2)CC1` [Compound 37], the 50% inhibitory concentration (IC50) in assay [1] was 5.01 nM; in assay [2] it was 44.8 nM.
For `CCOC(=O)C(C)(C)NC(=O)CC1CCN(c2ccc(NC(=O)c3cccc(C)c3-c3ccc(C(F)(F)F)cc3)cc2)CC1` [Compound 42], the IC50 is 14.9 nM in assay [1] and 152 nM in assay [2].
The like results for `COC(=O)CNC(=O)CC1CCN(c2ccc(NC(=O)c3cccc(C)c3-c3ccc(C(F)(F)F)cc3)cc2)CC1` [Compound 43] were, in that order, 10.4 nM and 7.03 nM.
Take `COC(=O)[C@@H](C)NC(=O)CC1CCN(c2ccc(NC(=O)c3cccc(C)c3-c3ccc(C(F)(F)F)cc3)cc2)CC1` [Compound 44]: the figures for the IC50 in assay [1] and in assay [2] were 1.7 nM and 21.1 nM, respectively.
With `CCNC(=O)[C@H](C)NC(=O)CC1CCN(c2ccc(NC(=O)c3cccc(C)c3-c3ccc(C(F)(F)F)cc3)cc2)CC1` [Compound 49], the IC50 in assay [1] is 9.1 nM; in assay [2] it was 17.3 nM.
The like results for `CCNC(=O)COC(=O)CC1CCN(c2ccc(NC(=O)c3cccc(C)c3-c3ccc(C(F)(F)F)cc3)cc2)CC1` [Compound 51] were, in that order, 6.04 nM and 15.5 nM.
The like results for `CCOC(=O)CC[C@@H](NC(=O)CC1CCN(c2ccc(NC(=O)c3cccc(C)c3-c3ccc(C(F)(F)F)cc3)cc2)CC1)C(=O)OCC` [Compound 52] were, in that order, 3 nM and 74 nM.
For `COC(=O)[C@H](Cc1c[nH]c2ccccc12)NC(=O)CC1CCN(c2ccc(NC(=O)c3cccc(C)c3-c3ccc(C(F)(F)F)cc3)cc2)CC1` [Compound 53], the IC50 was 15.7 nM in assay [1] and 126 nM in assay [2].
With `COC(=O)CCC(NC(=O)CC1CCN(c2ccc(NC(=O)c3cccc(C)c3-c3ccc(C(F)(F)F)cc3)cc2)CC1)C(=O)OC` (stereo not drawn) [Compound 54], the IC50 in assay [1] is 3.11 nM; in assay [2] it was 488 nM.
The like results for `COC(=O)CCNC(=O)CC1CCN(c2ccc(NC(=O)c3cccc(C)c3-c3ccc(C(F)(F)F)cc3)cc2)CC1` [Compound 55] were, in that order, 1.62 nM and 6.03 nM.
